For the assay, the target named is T1, α2δ subunit derived from porcine brain tissue (Sus scrofa, UniProt A0A287BIN3).
T1 construct: the α2δ subunit derived from porcine brain tissue; from tissue; host or cells: porcine brain tissue
The experiment in a line: radioligand binding assay using [3H]gabapentin and the α2δ subunit. The note with it: [3H]gabapentin binding. An excerpt: The biological activity of the alpha-2-delta ligands of the invention may be measured in a radioligand binding assay using [^3H]gabapentin and the α2δ subunit derived from porcine brain tissue (Gee N. S., Brown J. P., Dissanayake V. U. K., Offord J., Thurlow R., Woodruff G. N., J. Biol. Chem., 1996; 271:5768-5776). Results may be expressed in terms of μM or nM α2δ binding affinity.

Structures can show the parent of a compound that is named as a salt.

T1 sequence (A0A287BIN3 25-1109): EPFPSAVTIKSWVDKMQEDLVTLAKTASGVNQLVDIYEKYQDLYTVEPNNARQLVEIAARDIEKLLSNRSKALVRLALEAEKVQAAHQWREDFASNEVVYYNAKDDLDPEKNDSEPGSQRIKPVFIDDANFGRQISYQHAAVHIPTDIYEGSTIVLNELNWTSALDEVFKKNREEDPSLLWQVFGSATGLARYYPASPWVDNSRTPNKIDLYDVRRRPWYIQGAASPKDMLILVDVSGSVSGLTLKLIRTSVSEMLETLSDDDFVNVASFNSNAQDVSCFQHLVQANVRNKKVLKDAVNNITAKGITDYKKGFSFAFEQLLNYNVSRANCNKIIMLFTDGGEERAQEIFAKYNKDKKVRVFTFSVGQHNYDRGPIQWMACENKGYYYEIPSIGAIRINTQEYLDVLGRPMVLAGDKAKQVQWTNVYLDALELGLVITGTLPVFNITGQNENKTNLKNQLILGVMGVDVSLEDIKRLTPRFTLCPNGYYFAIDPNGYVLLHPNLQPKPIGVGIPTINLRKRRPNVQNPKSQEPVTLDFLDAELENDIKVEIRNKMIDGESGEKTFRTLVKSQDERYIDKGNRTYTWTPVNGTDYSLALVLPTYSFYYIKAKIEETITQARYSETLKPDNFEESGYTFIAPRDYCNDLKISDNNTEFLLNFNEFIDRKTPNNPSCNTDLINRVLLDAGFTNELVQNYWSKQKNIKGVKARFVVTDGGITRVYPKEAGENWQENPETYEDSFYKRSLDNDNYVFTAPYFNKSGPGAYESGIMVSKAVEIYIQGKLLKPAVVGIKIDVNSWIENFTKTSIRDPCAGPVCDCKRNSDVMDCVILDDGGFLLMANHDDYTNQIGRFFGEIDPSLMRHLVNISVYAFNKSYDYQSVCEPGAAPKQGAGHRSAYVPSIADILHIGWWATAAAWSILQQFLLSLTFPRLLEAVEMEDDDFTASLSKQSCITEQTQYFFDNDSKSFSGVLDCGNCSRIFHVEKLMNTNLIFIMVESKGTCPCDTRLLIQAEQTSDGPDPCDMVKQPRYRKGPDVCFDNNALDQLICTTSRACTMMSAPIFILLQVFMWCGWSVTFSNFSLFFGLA

Molecule `COc1ccc(Cl)cc1O[C@@H](CN)C(=O)O` [Example 4] had a 50% inhibitory concentration (IC50) of 12 nM. Under `NC[C@H](Oc1cccc(Cl)c1)C(=O)O` [Example 2] stands 91 nM.

In turn, `CCCc1cccc(O[C@@H](CN)C(=O)O)c1` [Example 5, (2S)-3-Amino-2-(3-propylphenoxy)propanoic acid hydrochloride] registered an IC50 of 114 nM. The value for `NC[C@H](Oc1ccccc1Cl)C(=O)O` [Example 3] was 124 nM; that for `NC[C@H](Oc1cc(Cl)ccc1Cl)C(=O)O` [Example 1, (2S)-3-Amino-2-(2,5-dichlorophenoxy)propanoic acid hydrochloride] was 9 nM.

Broadly, the IC50 is the concentration that inhibits the measured activity by half.

The values are drawn from US20090227680A1, “Amino Acid Derivatives” (Pfizer, Inc., priority 2005, published 2009).
